Reference: the supplement of paper PMC11208160

Assay: recombinant UMI read abundance after kanamycin selection (control-corrected) (log10(CPM+1)); higher = more efficient recombination; extreme values may be limits of the assay; sequences stand for … in AGTGCAGAGAAAATCGGCCAGTTTTCTCTGCCTGCAGTCCGCATGCCGTGGGACCCCTTGGGTTCTAACCTGTTGCCTAGATTTATGCAGCGGACTGCCTTTCTCCCAAAGTGATAAACCGG…AGGTTGGTTTCACT; site = the 11-nt donor
Method: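 Pooled E. coli donor-specificity screen for the IS621 bridge recombinase. Each library member carries a reprogrammed 11-nt donor and a full-length LE bridge RNA expressed in cis from the natural promoter, with a paired donor-binding loop (8-nt LDG + 4-nt RDG) and a target-binding loop fixed to T5. It is co-electroporated with a T5 target plasmid; recombinase is induced with 0.07 mM IPTG and recombinants are selected on kanamycin. UMIs are counted as CPM, averaged over two biological replicates and corrected by the unselected control. Molecule = full bridge RNA written as DNA, built from the T5 scaffold: LDG = donor specificity nt 1-8, RDG = reverse complement of nt 8-11.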
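Note: IS621 bridge recombinase in Escherichia coli cells against a fixed T5 target plasmid.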

“ACGCATCCATGGACCGGTTTTCCCGGTAATCCGTATTTGAC (site ACTCATCCTGT)” and “ACGCCCTCATGGACCGGTTTTCCCGGTAATCCGTATTTGGG (site ACGCCCTCTCC)” are within 0.2 log units of each other in “recombinant UMI read abundance (log10)” value: 0 for the first, 0.119 for the second.

First: ACGCGCCCATGGACCGGTTTTCCCGGTAATCCGTATTTGGT (site ACGCGCCCTAC)
Second: ACGCGGACATGGACCGGTTTTCCCGGTAATCCGTATTTGCA (site ACGCGGACTTG)
The “recombinant UMI read abundance (log10)” value of the first is lower: 0.771 for the first, 2.76 for the second.

Compared with “ACGCGGCCATGGACCGGTTTTCCCGGTAATCCGTATTTGCA (site ACGCGGCCTTG)”, “ACGCGTTCATGGACCGGTTTTCCCGGTAATCCGTATTTGCG (site ACGCGTTCTCG)” is higher in “recombinant UMI read abundance (log10)” value: 1.1 for the first, 1.8 for the second.

First: ACGGCATCATGGACCGGTTTTCCCGGTAATCCGTATTTGCA (site ACAGTATCTTG)
Second: ACGGCATCATGGACCGGTTTTCCCGGTAATCCGTATTTGCA (site ACGGCATCTTG)
The “recombinant UMI read abundance (log10)” value of the first is lower: 1.47 for the first, 1.77 for the second.

First: ACGGCTACATGGACCGGTTTTCCCGGTAATCCGTATTTGAC (site ACGGCTACTGT)
Second: ACGGGACCATGGACCGGTTTTCCCGGTAATCCGTATTTGTA (site ACGGGACCTTA)
The “recombinant UMI read abundance (log10)” value of the first is higher: 2.45 for the first, 0.00398 for the second.

Going from “ACGGGCACATGGACCGGTTTTCCCGGTAATCCGTATTTGGT (site ACGGGCACTAC)” to “ACGGTATCATGGACCGGTTTTCCCGGTAATCCGTATTTGCG (site ACAGTATCTTG)”, the “recombinant UMI read abundance (log10)” value rises from 0.805 to 2.27.

Going from “ACGGTATCATGGACCGGTTTTCCCGGTAATCCGTATTTGCG (site ACGGTATCTCG)” to “ACGGTATCATGGACCGGTTTTCCCGGTAATCCGTATTTGGG (site ACGGTATCTCC)”, the “recombinant UMI read abundance (log10)” value falls from 3.15 to 1.62.

Compared with “ACGGTATCATGGACCGGTTTTCCCGGTAATCCGTATTTGTA (site ACAGTATCTTG)”, “ACGGTATCATGGACCGGTTTTCCCGGTAATCCGTATTTGTA (site ACGGTATCTTA)” is higher in “recombinant UMI read abundance (log10)” value: 2.09 for the first, 3.09 for the second.

Going from “ACGGTCACATGGACCGGTTTTCCCGGTAATCCGTATTTGTA (site ACGGTCACTTA)” to “ACGGTTTCATGGACCGGTTTTCCCGGTAATCCGTATTTGTG (site ACGGTTTCTCA)”, the “recombinant UMI read abundance (log10)” value rises from 1.59 to 2.4.

Going from “ACGTACTCATGGACCGGTTTTCCCGGTAATCCGTATTTGGA (site ACGTACTCTTC)” to “ACGTAGGCATGGACCGGTTTTCCCGGTAATCCGTATTTGAA (site ACGTAGGCTTT)”, the “recombinant UMI read abundance (log10)” value falls from 2.95 to 1.96.

Going from “ACGTAGGCATGGACCGGTTTTCCCGGTAATCCGTATTTGGC (site AAGTAGGCTGC)” to “ACGTAGGCATGGACCGGTTTTCCCGGTAATCCGTATTTGGC (site ACGTAGGCTGC)”, the “recombinant UMI read abundance (log10)” value rises from 1.32 to 2.6.

“ACGTAGGCATGGACCGGTTTTCCCGGTAATCCGTATTTGGC (site AGGTAGGCTGC)” and “ACGTAGGCATGGACCGGTTTTCCCGGTAATCCGTATTTGGC (site ATGTAGGCTGC)” are within 0.2 log units of each other in “recombinant UMI read abundance (log10)” value: 1.06 for the first, 1.21 for the second.

“ACGTGAGCATGGACCGGTTTTCCCGGTAATCCGTATTTGGA (site ACGTGAGCTTC)” and “ACGTTAGCATGGACCGGTTTTCCCGGTAATCCGTATTTGTG (site ACGTTAGCTCA)” are within 0.2 log units of each other in “recombinant UMI read abundance (log10)” value: 1.78 for the first, 1.84 for the second.

Compared with “ACGTTAGCATGGACCGGTTTTCCCGGTAATCCGTATTTGTG (site CCGTTAGCTCA)”, “ACGTTAGCATGGACCGGTTTTCCCGGTAATCCGTATTTGTG (site GCGTTAGCTCA)” is lower in “recombinant UMI read abundance (log10)” value: 0.742 for the first, 0.298 for the second.

Compared with “ACGTTAGCATGGACCGGTTTTCCCGGTAATCCGTATTTGTG (site TCGTTAGCTCA)”, “ACGTTCACATGGACCGGTTTTCCCGGTAATCCGTATTTGCC (site ACGTTCACTGG)” is higher in “recombinant UMI read abundance (log10)” value: 0.526 for the first, 2.69 for the second.

First: ACGTTGCCATGGACCGGTTTTCCCGGTAATCCGTATTTGTT (site ACGTTGCCTAA)
Second: ACTAAAACATGGACCGGTTTTCCCGGTAATCCGTATTTGAG (site ACTAAAACTCT)
The “recombinant UMI read abundance (log10)” value of the first is lower: 0.363 for the first, 1.77 for the second.
